In US9617271B2, “Triazolo compounds” (Hoffmann-La Roche Inc., priority 2012, dated 2017):

target: human PDE10A (Homo sapiens (Human), UniProt Q9Y233); experiment: human PDE10A full length assay ([3H]-cGMP SPA); assay type: biochemical; conditions: human PDE10A full length enzyme, 50 nM cGMP + 50 nM [3H]-cGMP, 20 minutes at room temperature; read-out: PDE10A inhibition IC50
Experimental: The human PDE10A full length assay was performed in 96-well micro titer plates. The reaction mixture of 50 μl contained 20 mM HEPES pH=7.5/10 mM MgCl2/0.05 mg/ml BSA (Sigma cat. #A-7906), 50 nM cGMP (Sigma, cat. #G6129) and 50 nM [3H]-cGMP (GE Healthcare, cat. #TRK392 S.A. 13.2 Ci/mmol), 3.75 ng/well PDE10A enzyme (Enzo Life Science, Lausen, Switzerland cat #SE-534) with or without a specific test compound. A range of concentrations of the potential inhibitor was used to generate data for calculating the concentration of inhibitor resulting in 50% of the effect (e.g. IC50, the concentration of the competitor inhibiting PDE10A activity by 50%). Non-specific activity was tested without the enzyme. The reaction was initiated by the addition of the substrate solution (cGMP and [3H]-cGMP) and allowed to progress for 20 minutes at room temperature. The reaction was terminated by adding 25 μl of YSi-SPA scintillation beads (GE Healthcare, cat. #RPNQ0150) in 18 mM zinc sulphate solution (stop reagent). After 1 h under shaking, the plate was centrifuged one minute at 170 g to allow beads to settle. Afterwards, radioactive counts were measured on a Perkin Elmer TopCount Scintillation plate reader.

Chain of human PDE10A (Q9Y233 other isoform, or with tags, fused parts or gaps): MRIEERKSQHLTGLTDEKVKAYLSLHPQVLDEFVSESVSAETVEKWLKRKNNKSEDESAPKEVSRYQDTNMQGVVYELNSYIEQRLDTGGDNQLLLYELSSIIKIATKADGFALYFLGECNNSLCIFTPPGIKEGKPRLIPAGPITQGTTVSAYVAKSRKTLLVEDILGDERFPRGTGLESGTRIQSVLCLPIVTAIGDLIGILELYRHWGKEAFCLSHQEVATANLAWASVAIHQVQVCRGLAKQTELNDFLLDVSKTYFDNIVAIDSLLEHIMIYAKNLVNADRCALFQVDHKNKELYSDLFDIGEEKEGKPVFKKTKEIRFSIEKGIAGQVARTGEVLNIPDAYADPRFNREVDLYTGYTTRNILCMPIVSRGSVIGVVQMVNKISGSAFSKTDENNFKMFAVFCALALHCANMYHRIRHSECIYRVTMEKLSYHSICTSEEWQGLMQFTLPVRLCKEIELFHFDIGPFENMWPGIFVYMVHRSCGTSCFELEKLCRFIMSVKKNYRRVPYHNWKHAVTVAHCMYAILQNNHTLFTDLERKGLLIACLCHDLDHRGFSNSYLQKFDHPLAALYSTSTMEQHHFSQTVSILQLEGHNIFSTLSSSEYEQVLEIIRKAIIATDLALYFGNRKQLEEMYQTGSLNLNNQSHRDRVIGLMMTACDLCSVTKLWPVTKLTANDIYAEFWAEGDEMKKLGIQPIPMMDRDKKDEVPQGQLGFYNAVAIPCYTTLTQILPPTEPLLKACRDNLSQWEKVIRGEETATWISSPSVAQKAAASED

IC50 [nM]	SMILES
1.41	CCN(CC)c1nc(CCc2nc(N3CCCC3)nn2C)nn2c(C)c(C)nc12 [Example 35, N,N-Diethyl-6,7-dimethyl-2-(2-(1-methyl-3-(pyrrolidin-1-yl)-1H-1,2,4-triazol-5-yl)ethyl)imidazo[1,2-f][1,2,4]triazin-4-amine]
56	Cn1nc(N2CCCC2)nc1C#Cc1ccc2nc(Cl)cn2n1 [Example 36, 2-Chloro-6-((1-methyl-3-(pyrrolidin-1-yl)-1H-1,2,4-triazol-5-yl)ethynyl)imidazo[1,2-b]pyridazine]
338	Cn1nc(N2CCCC2)nc1CCc1ccc2nc(Cl)cn2n1 [Example 37, 2-Chloro-6-(2-(1-methyl-3-(pyrrolidin-1-yl)-1H-1,2,4-triazol-5-yl)ethyl)imidazo[1,2-b]pyridazine]
1.33	Cc1c(Cl)nc2ccc(C#Cc3nc(N4CCCC4)nn3C)nn12 [Example 38, 2-Chloro-3-methyl-6-((1-methyl-3-(pyrrolidin-1-yl)-1H-1,2,4-triazol-5-yl)ethynyl)-imidazo[1,2-b]pyridazine]
1400	CNC(=O)c1cc2nc(C)c(C)n2nc1C#Cc1nc(N2CCCC2)nn1C [Example 39, N,2,3-Trimethyl-6-((1-methyl-3-(pyrrolidin-1-yl)-1H-1,2,4-triazol-5-yl)ethynyl)imidazo[1,2-b]pyridazine-7-carboxamide]
1	CNC(=O)c1cc(C#Cc2nc(N3CCCC3)nn2C)nn2c(C)c(C)nc12 [Example 40, N,2,3-Trimethyl-6-((1-methyl-3-(pyrrolidin-1-yl)-1H-1,2,4-triazol-5-yl)ethynyl)imidazo-[1,2-b]pyridazine-8-carboxamide]
2	CNC(=O)c1cc(CCc2nc(N3CCCC3)nn2C)nn2c(C)c(C)nc12 [Example 41, N,2,3-Trimethyl-6-(2-(1-methyl-3-(pyrrolidin-1-yl)-1H-1,2,4-triazol-5-yl)ethyl)imidazo-[1,2-b]pyridazine-8-carboxamide]
11	Cc1nc2cc(C(F)(F)F)c(C#Cc3nc(N4CCCC4)nn3C)nn2c1C [Example 42, 2,3-Dimethyl-6-((1-methyl-3-(pyrrolidin-1-yl)-1H-1,2,4-triazol-5-yl)ethynyl)-7-(trifluoro-methyl)imidazo[1,2-b]pyridazine]
1	Cc1nc2c(C(C)C)cc(C#Cc3nc(N4CCCC4)nn3C)nn2c1C [Example 44, 8-Isopropyl-2,3-dimethyl-6-((1-methyl-3-(pyrrolidin-1-yl)-1H-1,2,4-triazol-5-yl)ethynyl)imidazo[1,2-b]pyridazine]
9	Cc1nc2c(C(C)C)cc(CCc3nc(N4CCCC4)nn3C)nn2c1C [Example 45, 8-Isopropyl-2,3-dimethyl-6-(2-(1-methyl-3-(pyrrolidin-1-yl)-1H-1,2,4-triazol-5-yl)ethyl)-imidazo[1,2-b]pyridazine]
1	Cc1nc2c(C3CC3)cc(C#Cc3nc(N4CCCC4)nn3C)nn2c1C [Example 46, 8-Cyclopropyl-2,3-dimethyl-6-((1-methyl-3-(pyrrolidin-1-yl)-1H-1,2,4-triazol-5-yl)ethynyl)imidazo[1,2-b]pyridazine]
0.9	Cc1nc2c(C3CCC3)cc(C#Cc3nc(N4CCCC4)nn3C)nn2c1C [Example 47, 8-Cyclobutyl-2,3-dimethyl-6-((1-methyl-3-(pyrrolidin-1-yl)-1H-1,2,4-triazol-5-yl)ethynyl)imidazo[1,2-b]pyridazine]
2.3	Cc1nc2c(C3CCC3)cc(CCc3nc(N4CCCC4)nn3C)nn2c1C [Example 48, 8-Cyclobutyl-2,3-dimethyl-6-(2-(1-methyl-3-(pyrrolidin-1-yl)-1H-1,2,4-triazol-5-yl)ethyl)imidazo[1,2-b]pyridazine]
2.9	Cc1nc2c(C3CC3)cc(CCc3nc(N4CCCC4)nn3C)nn2c1C [Example 49, 8-Cyclopropyl-2,3-dimethyl-6-(2-(1-methyl-3-(pyrrolidin-1-yl)-1H-1,2,4-triazol-5-yl)ethyl)imidazo[1,2-b]pyridazine]
2.6	Cc1nc2cc(C(C)C)c(C#Cc3nc(N4CCCC4)nn3C)nn2c1C [Example 50, 7-Isopropyl-2,3-dimethyl-6-((1-methyl-3-(pyrrolidin-1-yl)-1H-1,2,4-triazol-5-yl)ethynyl)imidazo[1,2-b]pyridazine]
0.6	Cc1nc2cc(C3CCC3)c(C#Cc3nc(N4CCCC4)nn3C)nn2c1C [Example 51, 7-Cyclobutyl-2,3-dimethyl-6-((1-methyl-3-(pyrrolidin-1-yl)-1H-1,2,4-triazol-5-yl)ethynyl)imidazo[1,2-b]pyridazine]
2.6	Cc1nn2ccc(C#Cc3nc(N4CCCC4)nn3C)nc2c1C [Example 52, 2,3-Dimethyl-5-((1-methyl-3-(pyrrolidin-1-yl)-1H-1,2,4-triazol-5-yl)ethynyl)pyrazolo[1,5-a]pyrimidine]

IC50 [nM]	SMILES
2.1	Cc1nn2ccc(CCc3nc(N4CCCC4)nn3C)nc2c1C [Example 53, 2,3-dimethyl-5-(2-(1-methyl-3-(pyrrolidin-1-yl)-1H-1,2,4-triazol-5-yl)ethyl)pyrazolo[1,5-a]pyrimidine]
1.6	Cc1cc(C#Cc2nc(N3CCCC3)nn2C)nn2c(C)c(C(F)(F)F)nc12 [Example 54, 3,8-Dimethyl-6-((1-methyl-3-(pyrrolidin-1-yl)-1H-1,2,4-triazol-5-yl)ethynyl)-2-(trifluoro-methyl)imidazo[1,2-b]pyridazine]
16.8	Cc1cc(CCc2nc(N3CCCC3)nn2C)nn2c(C)c(C(F)(F)F)nc12 [Example 55, 3,8-Dimethyl-6-(2-(1-methyl-3-(pyrrolidin-1-yl)-1H-1,2,4-triazol-5-yl)ethyl)-2-(trifluoro-methyl)imidazo[1,2-b]pyridazine]
38.2	Cc1nnc2ccc(C#Cc3nc(N4CCCC4)nn3C)nn12 [Example 56, 3-Methyl-6-((1-methyl-3-(pyrrolidin-1-yl)-1H-1,2,4-triazol-5-yl)ethynyl)[1,2,4]triazolo-[4,3-b]pyridazine]
534	Cc1nnc2ccc(CCc3nc(N4CCCC4)nn3C)nn12 [Example 57, 3-Methyl-6-(2-(1-methyl-3-(pyrrolidin-1-yl)-1H-1,2,4-triazol-5-yl)ethyl)[1,2,4]triazolo[4,3-b]pyridazine]
19.8	Cc1nc2cc(C3CCCCC3)c(CCc3nc(N4CCCC4)nn3C)nn2c1C [Example 58, 7-Cyclohexyl-2,3-dimethyl-6-(2-(1-methyl-3-(pyrrolidin-1-yl)-1H-1,2,4-triazol-5-yl)ethyl)imidazo[1,2-b]pyridazine]
2.7	COc1cc2nc(C)c(C)n2nc1C#Cc1nc(N2CCCC2)nn1C [Example 60, 7-Methoxy-2,3-dimethyl-6-((1-methyl-3-(pyrrolidin-1-yl)-1H-1,2,4-triazol-5-yl)ethynyl)imidazo[1,2-b]pyridazine]
76	Cc1cn2nc(C)c(C)c2nc1CCc1nc(N2CCCC2)nn1C [Example 61, 2,3,6-Trimethyl-5-(2-(1-methyl-3-(pyrrolidin-1-yl)-1H-1,2,4-triazol-5-yl)ethyl)pyrazolo[1,5-a]pyrimidine]
3	Cc1c(C(F)(F)F)nc2c(OCC(F)(F)F)cc(C#Cc3nc(N4CCCC4)nn3C)nn12 [Example 62, 3-Methyl-6-((1-methyl-3-(pyrrolidin-1-yl)-1H-1,2,4-triazol-5-yl)ethynyl)-8-(2,2,2-trifluoroethoxy)-2-(trifluoromethyl)imidazo[1,2-b]pyridazine]
9.4	Cc1c(C(F)(F)F)nc2c(OCC(F)(F)F)cc(CCc3nc(N4CCCC4)nn3C)nn12 [Example 63, 3-Methyl-6-(2-(1-methyl-3-(pyrrolidin-1-yl)-1H-1,2,4-triazol-5-yl)ethyl)-8-(2,2,2-trifluoroethoxy)-2-(trifluoromethyl)imidazo[1,2-b]pyridazine]
5.5	Cc1c(Cl)nc2ccc(CCc3nc(N4CCCC4)nn3C)nn12 [Example 64, 2-Chloro-3-methyl-6-(2-(1-methyl-3-(pyrrolidin-1-yl)-1H-1,2,4-triazol-5-yl)ethyl)imidazo[1,2-b]pyridazine]
2.5	Cc1nc2ccc(C#Cc3nc(N4CCCC4)nn3C)nn2c1Cl [Example 65, 3-Chloro-2-methyl-6-((1-methyl-3-(pyrrolidin-1-yl)-1H-1,2,4-triazol-5-yl)ethynyl)imidazo[1,2-b]pyridazine]
14.5	Cc1nc2ccc(CCc3nc(N4CCCC4)nn3C)nn2c1Cl [Example 66, 3-Chloro-2-methyl-6-(2-(1-methyl-3-(pyrrolidin-1-yl)-1H-1,2,4-triazol-5-yl)ethyl)imidazo[1,2-b]pyridazine]
10.2	Cc1cn2nc(C#Cc3nc(N4CCCC4)nn3C)ccc2n1 [Example 67, 2-Methyl-6-((1-methyl-3-(pyrrolidin-1-yl)-1H-1,2,4-triazol-5-yl)ethynyl)imidazo[1,2-b]pyridazine]
146	Cc1cn2nc(CCc3nc(N4CCCC4)nn3C)ccc2n1 [Example 68, 2-Methyl-6-(2-(1-methyl-3-(pyrrolidin-1-yl)-1H-1,2,4-triazol-5-yl)ethyl)imidazo[1,2-b]pyridazine]
2.1	CNC(=O)c1cc(C#Cc2nc(N3CCCC3)nn2C)nn2c(C)c(C(F)(F)F)nc12 [Example 69, N,3-Dimethyl-6-((1-methyl-3-(pyrrolidin-1-yl)-1H-1,2,4-triazol-5-yl)ethynyl)-2-(trifluoromethyl)imidazo[1,2-b]pyridazine-8-carboxamide]
